# In patent publication US12472185B2, “Methods for killing antibiotic tolerant bacteria” (THE PENN STATE RESEARCH FOUNDATION, priority 2020, dated 2025):
# Assays:
# S. aureus cells = assay: Survival of cells (drop assay); type: cell-based, Staphylococcus aureus; settings: 200 μM
# Protocol: FIG. 2. NPIMA eradicates Escherichia coli, Pseudomonas aeruginosa, and Staphylococcus aureus exponential cells. Survival after 6 hr for (a) E. coli BW25113 with NPIMA and 5-iodoindole at 100 μM, (b) P. aeruginosa PA14 with NPIMA and 5-iodoindole at 100 μM, and (c) S. aureus with NPIMA and 5-iodoindole at 200 μM. Asterisk indicates no viable cells detected. NPIMA, 5-nitro-3-phenyl-1H-indol-2-yl-methylamine hydrochloride.
# For bacterial viability, cells were washed twice with 0.85% NaCl, resuspended in 1×PBS, and cell counts were determined via the drop assay (Donegan, Matyac, Seidler, & Porteous, 1991). For human cell viability, pre-cultured human cancer HT-29 cells were dispensed in 98 μl in 96-well plates with approximately 5,000 cells/well. NPIMA was added (2 μl) to produce concentrations of 5, 10, 100, and 200 μM. For controls, Triton X-100 (positive control) and DMSO (negative solvent control), were used, and the medium was used for background. Plates were incubated in a humidified incubator (37° C., 5% CO2) for 24 hr. Cell viability was determined via a cell counting kit (CCK-8 Kit, ab228554; Abcam), and cytotoxicity was determined via the lactate dehydrogenase (LDH) assay (LDH Assay Kit, MK401; Takara).
# S. aureus = assay: LIVE/DEAD staining; type: cell-based, Staphylococcus aureus; settings: 100 μM, 1 hr
# Protocol: FIG. 4. NPIMA lyses Escherichia coli, Pseudomonas aeruginosa, and Staphylococcus aureus. LIVE/DEAD staining of (a) E. coli BW25113 after 0.75 hr, (b) P. aeruginosa PA14 after 1 hr, and (c) S. aureus after 1 hr treatment with NPIMA at 100 μM. […] White arrows indicate lysed cells. Representative images are shown. Scale bar=[…]. NPIMA, 5-nitro-3-phenyl-1H-indol-2-ylmethylamine hydrochloride.
# Cell viability after treating with NPIMA was determined using the using the LIVE/DEAD BacLight Bacterial Viability Kit (catalog number, L7012; Molecular Probes, Inc., Eugene, OR). The fluorescence signal was analyzed via a Zeiss Axioscope.A1 using excitation at 485 nm and emission at 530 nm for green fluorescence and using excitation at 485 nm and emission at 630 nm for red fluorescence.
# [1] = system: natural E. coli persister cells; assay: Survival of naturally-occurring persister cells (ampicillin only); type: cell-based, Escherichia coli; settings: NPIMA, compared with rifampicin-generated persisters
# Protocol: FIG. 9. NPIMA kills naturally-occurring E. coli persister cells. Survival of E. coli with 5-iodoindole and solvent negative control (DMSO) also shown. Asterisk (*) indicates no viable cells were detected. The persister cells were harvested at stationary-phase of E. coli (turbidity of 6.0 at 600 nm) and non-persister cells were removed by treatment.
# E. coli persister cells were prepared following our previous method (Kim, Yamasaki, et al., 2018; Kwan, Valenta, Benedik, & Wood, 2013). Exponentially-growing cells (turbidity of 0.8 at 600 nm) were treated with rifampicin (100 μg/ml for 30 min) to stop transcription, washed, and any remaining nonpersister cells were lysed by ampicillin in LB (100 μg/ml for 3 hr). Cells were harvested by centrifugation (17,000 g for 1 min) and washed with 1× phosphate-buffered saline buffer (PBS, 8 g NaCl, 0.2 g KCl, 1.15 g Na2HPO4, and 0.2 g KH2PO4 per 1,000 ml) twice to remove all possible carbon sources, then resuspended with 1×PBS. […]
# For bacterial viability, cells were washed twice with 0.85% NaCl, resuspended in 1×PBS, and cell counts were determined via the drop assay (Donegan, Matyac, Seidler, & Porteous, 1991). […] Cell viability was determined via a cell counting kit (CCK-8 Kit, ab228554; Abcam), and cytotoxicity was determined via the lactate dehydrogenase (LDH) assay (LDH Assay Kit, MK401; Takara).
# E. coli persister cells = assay: ChemBridge screen for persister cell killing; type: cell-based, Escherichia coli; settings: 100 μM, 24 hr
# Protocol: FIG. 1. […] Escherichia coli persister cells were treated for 24 hr at 100 μM with: • 1: N-(3,4-dichlorophenyl)-N′-(3-fluorophenyl) thiourea; • 2: 2-({2-[(4-bromophenyl)amino]-4-quinazolinyl}amino)ethanol hydrochloride; • 3: 2-[(6-phenyl-2,3,4,9-tetrahydro-1H-carbazol-1-yl)amino] ethanol; • 4: 1-(3,6-dichloro-9H-carbazol-9-yl)-3-(2-methyl-1H-imidazol-1-yl)-2-propanol; • 5: N-[2-(4-fluorophenyl)ethyl]-N′-(4-nitrophenyl) thiourea; • 6: N-(4-chlorobenzyl)-N′-4-pyridinylthiourea; • 7: N′-(3,5-dichloro-2-hydroxybenzylidene)-2-oxo-4-phenyl-3-pyrrolidinecarbohydrazide; and • 8: [(5-nitro-3-phenyl-1H-indol-2-yl)methyl]amine hydrochloride (NPIMA, structure shown in inset).
# To identify compounds that kill E. coli persister cells, 10,000 compounds of the DIVERset Library from ChemBridge (San Diego, CA) were tested by adding 4 μl of each (in DMSO, final concentration 100 μM) to 186 μl of LB in 96-well plates along with 10 μl of persister cells; the persister cells were added after the ChemBridge chemical since LB wakes persister cells (Kim, Yamasaki, et al., 2018). For the negative control, pure DMSO (final concentration 2 vol %) was used. The degree of inhibition was determined by the change in turbidity at 600 nm after 24 hr. The best 26 compounds were re-tested with the same conditions.
# To screen directly for killing persister cells, a high-throughput approach using 96-well microtiter plates was devised that consisted of (a) washing persister cells formed from exponentially-growing cells using rifampicin pretreatment followed by ampicillin treatment, (b) adding 10 μl of the persister cells to 190 μl of LB containing one each of the 10,000 compounds of the DiverSet library dissolved in dimethyl sulfoxide (100 μM final concentration), and (c) monitoring for growth via change in turbidity for 24 hr. With this approach, we allowed for up to a 140-fold change in turbidity (0.005 could be increased to 0.69).
compound,measurement,setting,value
"Cl.NCc1[nH]c2ccc([N+](=O)[O-])cc2c1-c1ccccc1 [NPIMA, [(5-nitro-3-phenyl-1H-indol-2-yl)methyl]amine hydrochloride]",time to eradicate S. aureus cells,S. aureus cells,3 h
same,cells killed (LIVE/DEAD),S. aureus,27%
same,killing of natural persisters (ampicillin treatment only),[1],killed in an identical manner
same,change of turbidity during first and second screen,E. coli persister cells,reduced the turbidity
same,"persister killing, second screen (FIG. 1)",E. coli persister cells; hydrochloride,substantially more effective than the other compounds
same,"persister killing, second screen (FIG. 1)","E. coli persister cells; listed as 8, hydrochloride",Most effective
